Reference: US7666913B2, “Method of treating or preventing osteoporosis using isotaxiresinol derived from Taxus yunnanensis” (Kotosugi Inc., priority 2004, dated 2010)

Experiments:
Type in all cases: in vivo, rat
[1] = test system: ovariectomized female Wistar rats, proximal tibia bone; assay: Antiosteoporotic activity in ovariectomized rats: pQCT of proximal tibia (BMC, BMD, cortical geometry, bone strength indices); conditions: for Cancellous bone BMC / Cancellous bone BMD / Cortical bone BMC / Cortical bone BMD / Cortical bone thickness / Edno. C. (endosteal circumference) / Peri. C. (periosteal circumference) / Total bone BMC / Total bone BMD / Cortical bone thickness as % of that of the Sham group / Bone strength index PSSI / Bone strength index XSSI / Bone strength index YSSI: OVX rats; for Cancellous bone BMC / Cancellous bone BMD / Cortical bone BMC / Cortical bone BMD / Cortical bone thickness / Edno. C. (endosteal circumference) / Peri. C. (periosteal circumference) / Total bone BMC / Total bone BMD / Bone strength index PSSI / Bone strength index XSSI / Bone strength index YSSI: 6 weeks, 1 mm under growth plate
Protocol: Antiosteoporotic Activity of ITX was Assessed by Using Rats. Each of the animal groups for experiments included comprised 10 rats. Ovaries were removed from female Wistar rats (age: 8 months, weight: 260-330 g). ITX, suspended in 1% water solution of carboxymethl cellulose sodium salt, was orally administered to rats of one group in a dose of 50 mg/kg (weight of rat) and to rats of another group in a dose of 100 mg/kg (weight of rat) 6 times per week after 2 weeks of the removal. […] An OVX (ovariectomized) group was prepared as negative control. Furthermore, another group was sham-operated as a Sham group. The OVX group and the Sham group were only fed, with no compound or drug given. Tibial characteristics of the rats, which were anesthetized in advance, were measured by means of peripheral quantitative computed tomography (pQCT) 6 weeks after the initiation of the administration (i.e., 8 weeks after the removal of the ovaries). In the measurement, the left tibiae were scanned with a pQCT system XCT Research M (manufactured by Stratec Medizintechnik GmbH, Germany). Voxel size was set to 0.08 mm, slice thickness was set to 0.5 mm, and cortical BMD threshold was set to 464 mg/cm^3. Furthermore, peel mode was set to 20 to divide total bone into cortical bone or cancerous bone. A growth plate was identified after preliminary scanning (scout scan), and then a reference position was identified. Next, transverse image sets of four cross-sectional slices were scanned at a region of 1 to 5 mm under the growth plate. Cortical BMC and BMD and cancellous BMC and BMD, thickness of cortical bone, and periosteal circumference and endosteal circumference of cortical bone were measured at a separation mode of 3 and a contour mode of 2. Three indices of bone strength (X-, Y-, and Polar-axes) were also measured, and the data obtained were processed by XCT Research Series Manual Software Version 5.4, in which case the standard cortical BMD was set to 1,200 mg/cm^3. […] The figures in the total bone columns show the values of the whole bone obtained by measuring cancellous bone and cortical bone together. […] The presentation of t-test results applies to Table 4 as well. In the experiment, three bone strength indexes were measured: PSSI (polar-axis strength index), XSSI (X-axis strength index), and YSSI (Y-axis strength index).

[2] = test system: ovariectomized female Wistar rats, tibiae and femora; assay: Antiosteoporotic activity in ovariectomized rats: weight and length of tibiae and femora; conditions: for Femur Length / Femur Weight / Tibia Length / Tibia Weight: OVX rats, mean ± SD
Protocol: Each of the animal groups for experiments included comprised 10 rats. Ovaries were removed from female Wistar rats (age: 8 months, weight: 260-330 g). ITX, suspended in 1% water solution of carboxymethl cellulose sodium salt, was orally administered to rats of one group in a dose of 50 mg/kg (weight of rat) and to rats of another group in a dose of 100 mg/kg (weight of rat) 6 times per week after 2 weeks of the removal. […] An OVX (ovariectomized) group was prepared as negative control. Furthermore, another group was sham-operated as a Sham group. The OVX group and the Sham group were only fed, with no compound or drug given. Furthermore, a tibia, a femur, and a uterus were removed from every rat and then weighted. […] In the table, ITX 100 is a group of the rats which ITX was given to in a dose of 100 mg/kg, and ITX 50 is a group of the rats which ITX was given to in a dose of 50 mg/kg. E2 is a group of the rats which E2 was given to. The figures in each column of the table show averages and standard deviations of the measured values. The presentation of the figures applies to Table 3 and Table 4 as well.

[3] = test system: ovariectomized female Wistar rats; assay: Antiosteoporotic activity in ovariectomized rats: body weight and uterine weight
Protocol: Each of the animal groups for experiments included comprised 10 rats. Ovaries were removed from female Wistar rats (age: 8 months, weight: 260-330 g). ITX, suspended in 1% water solution of carboxymethl cellulose sodium salt, was orally administered to rats of one group in a dose of 50 mg/kg (weight of rat) and to rats of another group in a dose of 100 mg/kg (weight of rat) 6 times per week after 2 weeks of the removal.
An OVX (ovariectomized) group was prepared as negative control. Furthermore, another group was sham-operated as a Sham group. The OVX group and the Sham group were only fed, with no compound or drug given.
Furthermore, a tibia, a femur, and a uterus were removed from every rat and then weighted.

[4] = E2 0.1 mg/kg into abdominal cavity
[5] = ITX 50 mg/kg oral, 6 times per week
[6] = ITX 100 mg/kg oral, 6 times per week

C[C@]12CC[C@@H]3c4ccc(O)cc4CC[C@H]3[C@@H]1CC[C@@H]2O [E2, 17β-estradiol, reference compound]
BMC and BMD (total, cancellous, cortical) compared to the OVX group (in words) ([1]; E2 0.1 mg/kg): inhibition of decrease in all but except total BMD and cancellous BMC
Endosteal circumference compared to the OVX group (in words) ([1]; E2 0.1 mg/kg): inhibition of increase
Increase in XSSI compared to the OVX group ([1]; E2 0.1 mg/kg): 15.3%
Increase in YSSI compared to the OVX group ([1]; E2 0.1 mg/kg): 23.5%
Increase in cortical bone thickness compared to the OVX group ([1]; E2 0.1 mg/kg): 9.8%
Periosteal circumference compared to the OVX group (in words) ([1]; E2 0.1 mg/kg): a decrease
Cancellous bone BMC [1, 4]: 0.96 ± 0.17 mg/mm
Cancellous bone BMD [1, 4]: 244 ± 53 mg/mL
Cortical bone BMC [1, 4]: 7.58 ± 0.48 mg/mm
Cortical bone BMD [1, 4]: 1143 ± 22 mg/mL
Cortical bone thickness [1, 4]: 0.56 ± 0.03 mm
Edno. C. (endosteal circumference) [1, 4]: 9.79 ± 0.57 mm
Peri. C. (periosteal circumference) [1, 4]: 13.4 ± 0.6 mm
Total bone BMC [1, 4]: 10.5 ± 0.7 mg/mm
Total bone BMD [1, 4]: 723 ± 38 mg/mL
Femur Length [2, 4]: 3.59 ± 0.15 cm
Femur Weight [2, 4]: 861 ± 65 mg
Tibia Length [2, 4]: 3.76 ± 0.14 cm
Tibia Weight [2, 4]: 547 ± 94 mg
Body weight at the end compared to the OVX group (in words) ([3]; E2 0.1 mg/kg): inhibition of increase
Body weight at the end ([3]; OVX rats, E2 0.1 mg/kg into abdominal cavity, end of the experiment): 299 ± 33 g
Decrease in uterine weight compared to the Sham group ([3]; OVX rats, E2 0.1 mg/kg, end of the experiment): 48.5%

COc1cc2c(cc1O)[C@H](c1ccc(O)c(O)c1)[C@@H](CO)[C@H](CO)C2 [ITX, isotaxiresinol]
Cortical BMC compared to the OVX group (in words) ([1]; ITX 50 mg/kg oral): inhibition of decrease
Cortical BMD compared to the OVX group (in words) ([1]; ITX 50 mg/kg oral): inhibition of decrease
Endosteal circumference compared to the OVX group (in words) ([1]; ITX 50 mg/kg oral): inhibition of increase
Increase in PSSI compared to the OVX group ([1]; ITX 50 mg/kg oral): 16.2%
Increase in XSSI compared to the OVX group ([1]; ITX 50 mg/kg oral): 14.2%
Increase in YSSI compared to the OVX group ([1]; ITX 50 mg/kg oral): 24.0%
Periosteal circumference compared to the OVX group (in words) ([1]; ITX 50 mg/kg oral): the same level or an increase
Total BMD compared to the OVX group (in words) ([1]; ITX 50 mg/kg oral): inhibition of decrease
Cancellous BMC compared to the OVX group (in words) ([1]; ITX 100 mg/kg oral): inhibition of decrease
Cortical BMD compared to the OVX group (in words) ([1]; ITX 100 mg/kg oral): inhibition of decrease
Endosteal circumference compared to the OVX group (in words) ([1]; ITX 100 mg/kg oral): inhibition of increase
Periosteal circumference compared to the OVX group (in words) ([1]; ITX 100 mg/kg oral): the same level or an increase
Cortical bone thickness as % of that of the Sham group ([1]; ITX 50 mg/kg oral): 98.3%
Bone strength index PSSI ([1]; ITX 50 mg/kg oral): 10.35 ± 0.89
Bone strength index XSSI ([1]; ITX 50 mg/kg oral): 5.15 ± 0.62
Bone strength index YSSI ([1]; ITX 50 mg/kg oral): 6.45 ± 0.67
Cancellous bone BMC ([1]; ITX 50 mg/kg oral): 0.99 ± 0.12 mg/mm
Cancellous bone BMD ([1]; ITX 50 mg/kg oral): 215 ± 25 mg/mL
Cortical bone BMC ([1]; ITX 50 mg/kg oral): 7.72 ± 0.52 mg/mm
Cortical bone BMD ([1]; ITX 50 mg/kg oral): 1137 ± 14 mg/mL
Cortical bone thickness ([1]; ITX 50 mg/kg oral): 0.58 ± 0.03 mm
Edno. C. (endosteal circumference) ([1]; ITX 50 mg/kg oral): 9.92 ± 0.54 mm
Peri. C. (periosteal circumference) ([1]; ITX 50 mg/kg oral): 13.7 ± 0.5 mm
Total bone BMC ([1]; ITX 50 mg/kg oral): 10.4 ± 0.8 mg/mm
Total bone BMD ([1]; ITX 50 mg/kg oral): 707 ± 14 mg/mL
Cortical bone thickness as % of that of the Sham group ([1]; ITX 100 mg/kg oral): 93.2%
Bone strength index PSSI ([1]; ITX 100 mg/kg oral): 9.34 ± 0.70
Bone strength index XSSI ([1]; ITX 100 mg/kg oral): 4.77 ± 0.68
Bone strength index YSSI ([1]; ITX 100 mg/kg oral): 5.71 ± 0.41
Cancellous bone BMC ([1]; ITX 100 mg/kg oral): 1.04 ± 0.15 mg/mm
Cancellous bone BMD ([1]; ITX 100 mg/kg oral): 207 ± 28 mg/mL
Cortical bone BMC ([1]; ITX 100 mg/kg oral): 7.40 ± 0.29 mg/mm
Cortical bone BMD ([1]; ITX 100 mg/kg oral): 1138 ± 17 mg/mL
Cortical bone thickness ([1]; ITX 100 mg/kg oral): 0.55 ± 0.03 mm
Edno. C. (endosteal circumference) ([1]; ITX 100 mg/kg oral): 9.97 ± 0.37 mm
Peri. C. (periosteal circumference) ([1]; ITX 100 mg/kg oral): 13.6 ± 0.4 mm
Total bone BMC ([1]; ITX 100 mg/kg oral): 9.82 ± 0.37 mg/mm
Total bone BMD ([1]; ITX 100 mg/kg oral): 683 ± 21 mg/mL
Tibia weight compared with the OVX group (in words) ([2]; ITX 50 mg/kg oral): no significant difference
Femur weight compared with the OVX group (in words) ([2]; ITX 100 mg/kg oral): no significant difference
Femur Length [2, 5]: 3.64 ± 0.05 cm
Femur Weight [2, 5]: 862 ± 64 mg
Tibia Length [2, 5]: 3.98 ± 0.14 cm
Tibia Weight [2, 5]: 588 ± 52 mg
Femur Length [2, 6]: 3.59 ± 0.22 cm
Femur Weight [2, 6]: 897 ± 83 mg
Tibia Length [2, 6]: 3.97 ± 0.24 cm
Tibia Weight [2, 6]: 562 ± 95 mg
Body weight at the end compared to the OVX group (in words) ([3]; ITX 50 mg/kg oral): inhibition of increase
Body weight at the end compared to the OVX group (in words) ([3]; ITX 100 mg/kg oral): inhibition of increase
Body weight at the end ([3]; OVX rats, ITX 50 mg/kg oral, end of the experiment): 318 ± 18 g
Body weight at the end ([3]; OVX rats, ITX 100 mg/kg oral, end of the experiment): 301 ± 15 g
